We go through twelve compounds from patent US10653688B2, “6-(6-membered heteroaryl and aryl)isoquinolin-3-yl carboxamides and preparation and use thereof” (Samumed, LLC, priority 2017, dated 2020).

In experiment [1] the test system is Wnt activity (SW480 colon carcinoma cells stably expressing the Sp5-Luc reporter gene). Description: Wnt activity screening assay (Sp5-Luc reporter gene assay). The conditions noted are these: Homo sapiens; for EC50: 36 to 48 hours; for inhibition at 10 µM: read-out: percent inhibition at 10 μM (given for EC50 >10 μM), 10 μM. The format is cell-based, human. The source says: The screening assay for Wnt activity is described as follows. Reporter cell lines can be generated by stably transducing cancer cell lines (e.g., colon cancer) or primary cells (e.g., IEC-6 intestinal cells) with a lentiviral construct that includes a Wnt-responsive promoter driving expression of the firefly luciferase gene.
SW480 colon carcinoma cells were transduced with a lentiviral vector expressing luciferase with a human Sp5 promoter consisting of a sequence of eight TCF/LEF binding sites. SW480 cells stably expressing the Sp5-Luc reporter gene and a hygromycin resistance gene were selected by treatment with 150 μg/mL of hygromycin for 7 days. These stably transduced SW480 cells were expanded in cell culture and used for all further screening activities. […] For Sp5-Luc reporter gene assays, the cells were plated at 4,000 cells/well in 384-well plates with a DMEM medium containing 1% fetal bovine serum, and 1% Penicillin-Streptomycin and incubated for 36 to 48 hours at 37° C. and 5% CO2. Following incubation, 15 μl of BriteLite Plus luminescence reagent (Perkin Elmer) was added to each well of the 384-well assay plates. The plates were placed on an orbital shaker for 2 min and then luminescence was quantified using the Envision (Perkin Elmer) plate reader. Readings were normalized to DMSO only treated cells, and normalized activities were utilized for EC50 calculations using the dose-response log (inhibitor) vs. response-variable slope (four parameters) nonlinear regression feature available in GraphPad Prism 5.0 (or Dotmatics).

The next experiment has as its target recombinant GSK3β kinase (Homo sapiens (Human), UniProt P49841). Nature of the experiment: GSK3β kinase assay (Ser/Thr 09 peptide Z-lyte, FRET).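 Also: FRET read-out as coumarin over fluorescein emission ratio, compounds incubated one hour at room temperature, IC50 from dose-response curve fit.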 Format: biochemical.
Experiment [2] deals with SW480 colon carcinoma cells. Nature of the experiment: Cell viability assay (CellTiter-Glo). The note with it: Homo sapiens; for EC50: 96 h, four days, CellTiter-Glo; for inhibition at 10 µM: read-out: percent inhibition at 10 μM (given for EC50 >10 μM), 10 μM. Format: cell-based, human. Here is the method: SW480 colon carcinoma cells were transduced with a lentiviral vector expressing luciferase with a human Sp5 promoter consisting of a sequence of eight TCF/LEF binding sites. SW480 cells stably expressing the Sp5-Luc reporter gene and a hygromycin resistance gene were selected by treatment with 150 μg/mL of hygromycin for 7 days. These stably transduced SW480 cells were expanded in cell culture and used for all further screening activities.
For the Cell Viability Assays, the cells were plated at 2,000 cells/well in 384-well plates with a DMEM medium containing 1% fetal bovine serum, and 1% Penicillin-Streptomycin and incubated for […] at 37° C. and 5% CO2. Eight replicates of DMSO-treated cells served as controls and cells treated with compound were performed in duplicate.
After incubation, 10 μL of CellTiter-Glo (Promega) was added to each well allowed to incubate for approximately 12 minutes. This reagent “results in cell lysis and generation of a luminescent signal proportional to the amount of ATP present. The amount of ATP is directly proportional to the number of cells present in culture, in agreement with previous reports. The CellTiter-Glo Assay generates a “glow-type” luminescent signal, produced by the luciferase reaction (Promega.com)”.

Experiment [3] deals with LL29 cells (primary human fibroblasts derived from IPF patients), α-smooth muscle actin. Description: Inhibition of fibrotic process: TGF-β1-treated primary human fibroblasts, αSMA staining.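 As to all read-outs here: controls were TGF-β1-stimulated wells with DMSO vehicle as the positive reference and cells given DMSO alone as the negative reference.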 Format: cell-based. The note with it: Homo sapiens, Fibroblast; for EC50: 96 h, TGF-β1 20 ng/mL, 4 days, % cells positive for αSMA; for inhibition at 10 µM: read-out: percent inhibition at 10 μM (given for EC50 >10 μM), TGF-β1, αSMA, 10 μM.
Method: Representative compounds were screened using primary human fibroblasts (derived from IPF patients) treated with TGF-β1 to determine their ability to inhibit the fibrotic process.
Human Fibroblast Cell Culture:
Each compound was dissolved in DMSO as a 10 mM stock and used to prepare compound source plates. […] LL29 cells were plated at 1,500 cells/well in 70 μL/well F12 medium supplemented with 1% Fetal Bovine Serum. […] Wells treated with TGF-β1 and containing DMSO were used as positive control, and cells with only DMSO were negative control. Cells were incubated at 37° C. and 5% CO2 for 4 days. Following incubation for 4 days, SYTOX green nucleic acid stain (Life Technologies [Thermo Fisher Scientific]) was added to the wells at a final concentration of 1 μM and incubated at room temperature for 30 min. Cells were then fixed using 4% formaldehyde (Electron Microscopy Sciences), washed 3 times with PBS followed by blocking and permeabilization using 3% Bovine Serum Albumin (BSA; Sigma) and 0.3% Triton X-100 (Sigma) in PBS.

For experiment [4], the system named is IL-6 in human peripheral blood mononuclear cells (huPBMCs). Nature of the experiment: IL-6 inhibition in LPS-stimulated human peripheral blood mononuclear cells (HTRF). Format: cell-based. The note with it: Homo sapiens, PBMC; for EC50: LPS 50 ng/mL, 22 hours, IL-6 HTRF; for inhibition at 10 µM: read-out: percent inhibition at 10 μM (given for EC50 >10 μM), LPS, IL-6, 10 μM. On the procedure: Human Peripheral Blood Mononuclear Cells:
Fresh Normal PB MNC (Catalog # PB001, AllCells, Alameda, Calif.) were shipped overnight at 4° C. and resuspended in Roswell Park Memorial Institute (RPMI) 1640 Medium, with GlutaMAX Supplement (Catalog #61870127, ThermoFisher Scientific, Waltham, Mass.) supplemented with 1% Penicillin-Streptomycin (Catalog #15140163, ThermoFisher Scientific, Waltham, Mass.) and 1% fetal bovine serum (FBS) (Catalog #16140089, ThermoFisher Scientific, Waltham, Mass.) assay media.
Fresh normal human peripheral blood mononuclear cells (huPBMCs) were resuspended in 1% FBS-RPMI assay media with 1% Penicillin-Streptomycin 1% to a cell concentration of 1×10e6 cells/mL. […] 50 ng/mL of Lipopolysaccharides from Escherichia coli 0111:B4 (Catalog # L5293-2ML, Sigma-Aldrich, St. Louis, Mo.) was added after 2 hours and cells were incubated for another 22 hours at 37° C.-5% CO2. After 22 hour incubation, a mixture of anti-IL6 XL665 and anti-IL-6 Cryptate diluted in reconstitution buffer (Catalog #62IL6PEC, Cisbio Inc., Bedford, Mass.) was added to each well. Following incubation for 3 hours at room temperature, Homogeneous Time-Resolved Fluorescence (HTRF) was measured using the Envision (Perkin Elmer, Shelton, Conn.) at 665 nm and […]. The ratio of fluorescence at 665 nm to 620 nm was used as a readout for IL-6 quantification. All samples were processed in duplicate. Readings were normalized to DMSO treated cells and normalized activities were utilized for EC50 calculations. EC50 was determined using software generated by Dotmatics Limited (Windhill Bishops Stortford Herts, UK) using the Levenberg-Marquardt 4 parameter fitting procedure with finite different gradients.
Background: In TR-FRET formats the signal depends on donor and acceptor labels being close together.

Experiment [5] addresses recombinant DYRK1A kinase (Homo sapiens (Human), UniProt Q13627). Nature of the experiment: DYRK1A kinase assay (Ser/Thr 18 peptide Z-lyte, FRET).
The mark [6] stands for this setting: GSK3β kinase, head says EC50, method says IC50, ATP 46 μM.
Where [7] appears, read: DYRK1A kinase, head says EC50, method says IC50, ATP 30 μM.

Like-named read-outs stand apart in the source and are kept apart here.

Sequence of recombinant GSK3β kinase (P49841 whole entry): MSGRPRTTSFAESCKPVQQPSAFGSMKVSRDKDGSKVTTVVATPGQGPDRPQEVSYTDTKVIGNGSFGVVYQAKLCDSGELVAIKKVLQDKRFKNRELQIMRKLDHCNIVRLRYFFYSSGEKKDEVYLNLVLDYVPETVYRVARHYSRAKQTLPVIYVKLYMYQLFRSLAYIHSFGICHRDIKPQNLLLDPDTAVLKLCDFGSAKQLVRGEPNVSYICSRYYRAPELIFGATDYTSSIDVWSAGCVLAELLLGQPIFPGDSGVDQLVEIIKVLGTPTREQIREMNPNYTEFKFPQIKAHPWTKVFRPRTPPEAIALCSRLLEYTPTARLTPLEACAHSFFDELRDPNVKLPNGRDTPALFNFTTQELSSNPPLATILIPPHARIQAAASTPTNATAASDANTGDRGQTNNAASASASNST
Method for recombinant GSK3β kinase: Each compound is dissolved in DMSO as a 10 mM stock and used to prepare compound source plates. Serial dilution (1:3, 11-point dose-response curves from 10 M to 0.0003 M) and compound transfer was performed using the ECHO 550 (Labcyte, Sunnyvale, Calif.) into 1536-well black-walled round bottom plates (Corning).
This is a non-radioactive assay using fluorescence resonance energy transfer (FRET) between coumarin and fluorescein to detect kinase activity which is represented as ratio of coumarin emission/fluorescein emission.
The mixture is allowed to incubate with the representative compounds for one hour at room temperature. All reactions were performed in duplicate. Unphosphorylated (“0% Control”) and phosphorylated (“100% control”) forms of Ser/Thr 18 serve as control reactions.
After incubation, diluted Development Buffer is added to the reaction and allowed to further incubate for one hour at room temperature.
Dose-response curves are generated and inhibitory concentration (IC50) values are calculated using non-linear regression curve fit in the Dotmatics' Studies Software (Bishops Stortford, UK).

For `O=C(Nc1cc2cc(-c3cncc(NC4CCNCC4)c3)ccc2cn1)c1ccc(F)cc1` [Compound 45, 4-fluoro-N-(6-(5-(piperidin-4-ylamino)pyridin-3-yl)isoquinolin-3-yl) benzamide], the EC50 (usually the concentration at which the effect is half-maximal) in experiment [1] is 698 nM; at recombinant GSK3β kinase, above 10000 nM; in experiment [2] it was 865 nM; in experiment [3], 622 nM; in experiment [4], 1130 nM; in experiment [5], 9 nM.

`CN1CCC(Nc2cncc(-c3ccc4cnc(NC(=O)c5ccc(F)cc5)cc4c3)c2)CC1` [Compound 46, 4-Fluoro-N-(6-(5-((1-methylpiperidin-4-yl)amino)pyridin-3-yl)isoquinolin-3-yl)benzamide]: the EC50 is 4410 nM in experiment [1]; 7090 nM at recombinant GSK3β kinase (setting [6]); 4250 nM in experiment [2]; 682 nM in experiment [3]; 1380 nM in experiment [4]; 3 nM in experiment [5] (setting [7]).

In the case of `CN1CCN(c2cc(C(=O)Nc3cc4cc(-c5cncc(N(C)C)c5)ccc4cn3)ccn2)CC1` [Compound 48, N-(6-(5-(Dimethylamino)pyridin-3-yl)isoquinolin-3-yl)-2-(4-methylpiperazin-1-yl)isonicotinamide], the EC50 is 2320 nM in experiment [1]; above 10000 nM on recombinant GSK3β kinase; 6560 nM in experiment [2]; 4880 nM in experiment [3]; 9680 nM in experiment [4]; 40 nM in experiment [5].

Turning to `CN1CCN(c2cc(C(=O)Nc3cc4cc(-c5ccc(N(C)C)nc5)ccc4cn3)ccn2)CC1` [Compound 49, N-(6-(6-(Dimethylamino)pyridin-3-yl)isoquinolin-3-yl)-2-(4-methylpiperazin-1-yl)isonicotinamide], the EC50 in experiment [1] was above 10000 nM; on recombinant GSK3β kinase (setting [6]), above 10000 nM; in experiment [2], above 10000 nM; in experiment [3], above 10000 nM; in experiment [4] it was above 10000 nM; in experiment [5] (setting [7]), 904 nM. Also, the inhibition (in general, the relative decrease from the control value, in per cent) at 10 µM in experiment [2] came to 37.1%; in experiment [3], 33.5%; in experiment [4], 0%.

For `O=C(Nc1cc2cc(-c3cncc(CN4CCCC4)c3)ccc2cn1)c1ccc(F)cc1` [Compound 52, 4-Fluoro-N-(6-(5-(pyrrolidin-1-ylmethyl)pyridin-3-yl)isoquinolin-3-yl) benzamide], the EC50 in experiment [1] is above 10000 nM; on recombinant GSK3β kinase (setting [6]) it was above 10000 nM; in experiment [2] it was 6920 nM; in experiment [3], above 10000 nM; in experiment [4] it was above 10000 nM; in experiment [5] (setting [7]), 12 nM. Moreover, the inhibition at 10 µM in experiment [1] is 17.7%; in experiment [3], 37.1%; in experiment [4], 17.6%.

Consider `O=C(Nc1cc2cc(-c3cncc(CN4CCC(O)CC4)c3)ccc2cn1)c1ccc(F)cc1` [Compound 54, 4-Fluoro-N-(6-(5-((4-hydroxypiperidin-1-yl)methyl)pyridin-3-yl)isoquinolin-3-yl)benzamide], for which the EC50 was 382 nM in experiment [1]; above 10000 nM at recombinant GSK3β kinase; 647 nM in experiment [2]; above 10000 nM in experiment [3]; above 10000 nM in experiment [4]; 3 nM in experiment [5]. Also, the inhibition at 10 µM stood at 11.2% in experiment [3] and 17.9% in experiment [4].

Take `CNC(=O)c1cncc(-c2ccc3cnc(NC(=O)c4ccnc(N5CCN(C)CC5)c4)cc3c2)c1` [Compound 59, N-methyl-5-(3-(2-(4-methylpiperazin-1-yl)isonicotinamido)isoquinolin-6-yl)nicotinamide]: the EC50 in experiment [1] was 866 nM; on recombinant GSK3β kinase (setting [6]), above 10000 nM; in experiment [2], 2320 nM; in experiment [3], 705 nM; in experiment [4], above 10000 nM; in experiment [5] (setting [7]), 6 nM. Further, in experiment [4], the inhibition at 10 µM was 4.7%.

For the compound `Cc1ncc(-c2ccc3cnc(NC(=O)c4ccnc(N5CCN(C)CC5)c4)cc3c2)cn1` [Compound 64, 2-(4-Methylpiperazin-1-yl)-N-(6-(2-methylpyrimidin-5-yl)isoquinolin-3-yl)isonicotinamide], the EC50 in experiment [1] is above 10000 nM; at recombinant GSK3β kinase (setting [6]), above 10000 nM; in experiment [2] it was 8020 nM; in experiment [3] it was 2000 nM; in experiment [4], above 10000 nM; in experiment [5] (setting [7]), 158 nM. For the same compound, the inhibition at 10 µM in experiment [1] was 28.7%; in experiment [4], 5.7%.

On to `O=C(CN1CCCC1)Nc1cc2cc(-c3ccnnc3)ccc2cn1` [Compound 68, N-(6-(Pyridazin-4-yl)isoquinolin-3-yl)-2-(pyrrolidin-1-yl)acetamide], for which the EC50 in experiment [1] worked out at 4210 nM; at recombinant GSK3β kinase (setting [6]), 2590 nM; in experiment [2], 7910 nM; in experiment [3] it was 3380 nM; in experiment [4], 8760 nM; in experiment [5] (setting [7]) it was 328 nM.

In the case of `CN1CCC(F)(C(=O)Nc2cc3cc(-c4cnccn4)ccc3cn2)CC1` [Compound 76, 4-Fluoro-1-methyl-N-(6-(pyrazin-2-yl)isoquinolin-3-yl)piperidine-4-carboxamide], the EC50 in experiment [1] was above 10000 nM; on recombinant GSK3β kinase (setting [6]), above 10000 nM; in experiment [2], above 10000 nM; in experiment [3], above 10000 nM; in experiment [4] it was above 10000 nM; in experiment [5] (setting [7]), 258 nM. The inhibition at 10 µM came out at 15.7% in experiment [1], 17.5% in experiment [2], 13.1% in experiment [3] and 1.6% in experiment [4].

For `CN1CCN(c2cc(C(=O)Nc3cc4cc(-c5cnccn5)ccc4cn3)ccn2)CC1` [Compound 84, 2-(4-Methylpiperazin-1-yl)-N-(6-(pyrazin-2-yl)isoquinolin-3-yl)isonicotinamide], the concentration giving a half-maximal response (EC50) was 5830 nM in experiment [1]; above 10000 nM on recombinant GSK3β kinase (setting [6]); 8380 nM in experiment [2]; above 10000 nM in experiment [3]; above 10000 nM in experiment [4]; 96 nM in experiment [5] (setting [7]). Further, the inhibition at 10 µM in experiment [3] is 35.4%; in experiment [4], 5.7%.

Regarding `CNc1cncc(-c2ccc3cnc(NC(=O)c4ccnc(N5CCN(C)CC5)c4)cc3c2)n1` [Compound 85, N-(6-(6-(Methylamino)pyrazin-2-yl)isoquinolin-3-yl)-2-(4-methylpiperazin-1-yl)isonicotinamide], the EC50 is 757 nM in experiment [1]; above 10000 nM at recombinant GSK3β kinase (setting [6]); 2460 nM in experiment [2]; 1850 nM in experiment [3]; 6710 nM in experiment [4]; 2 nM in experiment [5] (setting [7]).
